Experimental findings from patent publication US8613914B2, “Peptidomimetic sulfamide compounds and antiviral uses thereof” (Novartis AG, priority 2009, dated 2013) are described below.

The target of the assay is HCV NS3-4A serine protease (full-length NS3-4A protein) (Hepatitis C virus genotype 1a (isolate 1) (HCV), UniProt P26664). The assay can be described thus: HCV NS3-4A protease assay. Type of assay: biochemical, HCV genotype 1a. As to conditions: strain HCV-1, fluorogenic peptide substrate, read-out: Protease assay Ex. 12 IC50. Here is the method:
The inhibitory activity of certain compounds of Table A against HCV NS3-4A serine protease is determined in a homogenous assay using the full-length NS3-4A protein (genotype 1a, strain HCV-1) and a commercially available internally-quenched fluorogenic peptide substrate as described by Taliani, M., et al. 1996 Anal. Biochem. 240:60-67, which is incorporated by reference in its entirety.

Sequence of HCV NS3-4A serine protease (full-length NS3-4A protein) (P26664 1027-1657): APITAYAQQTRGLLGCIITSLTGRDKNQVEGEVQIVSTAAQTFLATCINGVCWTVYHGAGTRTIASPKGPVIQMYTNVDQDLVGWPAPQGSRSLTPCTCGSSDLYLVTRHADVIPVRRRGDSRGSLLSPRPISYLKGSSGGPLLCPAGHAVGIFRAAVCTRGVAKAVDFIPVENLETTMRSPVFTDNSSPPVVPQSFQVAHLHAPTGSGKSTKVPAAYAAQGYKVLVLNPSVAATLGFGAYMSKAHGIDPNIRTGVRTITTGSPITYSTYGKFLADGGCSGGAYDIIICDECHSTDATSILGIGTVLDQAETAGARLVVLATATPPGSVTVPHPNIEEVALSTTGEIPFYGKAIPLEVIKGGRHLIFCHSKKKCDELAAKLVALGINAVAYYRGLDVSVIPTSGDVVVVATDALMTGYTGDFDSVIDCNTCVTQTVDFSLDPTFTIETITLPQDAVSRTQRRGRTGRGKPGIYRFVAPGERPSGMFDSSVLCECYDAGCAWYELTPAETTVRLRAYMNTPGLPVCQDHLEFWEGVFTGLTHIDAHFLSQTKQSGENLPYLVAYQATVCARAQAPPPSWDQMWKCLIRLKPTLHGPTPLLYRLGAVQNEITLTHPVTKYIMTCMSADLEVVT
Sequence of HCV NS3-4A serine protease (full-length NS3-4A protein) (P26664 1658-1711 partner): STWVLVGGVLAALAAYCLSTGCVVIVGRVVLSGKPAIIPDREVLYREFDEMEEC

Consider `C=C[C@@H]1C[C@]1(NC(=O)[C@@H]1C[C@@]2(CN1C(=O)[C@@H](NC(=O)[C@@H](NC(=O)[C@@H]1CCCCN1C(C)C)C(C)C)C(C)(C)C)C(C)(C)C21CCC1)C(=O)NS(=O)(=O)N(CC)CC` [Compound 122, (5R,8S)-N-[(1R,2S)-1-{[(diethylamino)sulfonyl]carbamoyl}-2-vinylcyclopropyl]-7-[(2S)-2-{[(2S)-2-({[(2S)-1-isopropylpiperidin-2-yl]carbonyl}amino)-3-methylbutanoyl]amino}-3,3-dimethylbutanoyl]-10,10-dimethyl-7-azadispiro[3.0.4.1]decane-8-carboxamide], for which the IC50 – broadly, the midpoint of a concentration-inhibition curve – was 1.4 nM.

Regarding `C=C[C@@H]1C[C@]1(NC(=O)[C@@H]1C[C@@]2(CN1C(=O)[C@@H](NC(=O)[C@@H](NC(=O)[C@@H]1CCCCN1C(C)C)C1(C)CCCCC1)C1(C)CCOCC1)C(C)(C)C21CCC1)C(=O)NS(=O)(=O)N(CC)CC` [Compound 152, (5R,8S)-N-[(1R,2S)-1-{[(diethylamino)sulfonyl]carbamoyl}-2-vinylcyclopropyl]-7-[(2S)-2-{[(2S)-2-({[(2S)-1-isopropylpiperidin-2-yl]carbonyl}amino)-2-(1-methylcyclohexyl)acetyl]amino}-2-(4-methyltetrahydro-2H-pyran-4-yl)acetyl]-10,10-dimethyl-7-azadispiro[3.0.4.1]decane-8-carboxamide], the IC50 stood at 1.1 nM.

Turning to `C=C[C@@H]1C[C@]1(NC(=O)[C@@H]1C[C@@]2(CN1C(=O)[C@@H](NC(=O)[C@@H](NC(=O)c1cnccn1)C1CCCCC1)C(C)(C)C)C(C)(C)C21CCC1)C(=O)NS(=O)(=O)NC1CC1` [Compound 165, (5R,8S)-7-[(2S)-2-({(2S)-2-cyclohexyl-2-[(pyrazin-2-ylcarbonyl)amino]acetyl}amino)-3,3-dimethylbutanoyl]-N-[(1R,2S)-1-{[(cyclopropylamino)sulfonyl]carbamoyl}-2-vinylcyclopropyl]-10,10-dimethyl-7-azadispiro[3.0.4.1]decane-8-carboxamide], the IC50 is 6.2 nM.

Regarding `C=C[C@@H]1C[C@]1(NC(=O)[C@@H]1C[C@@]2(CN1C(=O)[C@@H](NC(=O)[C@@H](NC(=O)[C@@H]1CCCN1CC)C1CCCCC1)C(C)(C)C)C(C)(C)C21CCC1)C(=O)NS(=O)(=O)N(CC)CCC` [Compound 107, (5R,8S)-7-[(2S)-2-{[(2S)-2-cyclohexyl-2-({[(2S)-1-ethylpyrrolidin-2-yl]carbonyl}amino)acetyl]amino}-3,3-dimethylbutanoyl]-N-[(1R,2S)-1-({[ethyl(propyl)amino]sulfonyl}carbamoyl)-2-vinylcyclopropyl]-10,10-dimethyl-7-azadispiro[3.0.4.1]decane-8-carboxamide], the IC50 came out at 9 nM.

Turning to `C=C[C@@H]1C[C@]1(NC(=O)[C@@H]1C[C@@]2(CN1C(=O)[C@@H](NC(=O)[C@@H](NC(=O)[C@@H]1CCC(F)(F)CN1C(C)C)C1CCCCC1)C(C)(C)C)C(C)(C)C21CCC1)C(=O)NS(=O)(=O)N1CCCC1` [Compound 105, (5R,8S)-7-[(2S)-2-{[(2S)-2-cyclohexyl-2-({[(2S)-5,5-difluoro-1-isopropylpiperidin-2-yl]carbonyl}amino)acetyl]amino}-3,3-dimethylbutanoyl]-10,10-dimethyl-N-{(1R,2S)-1-[(pyrrolidin-1-ylsulfonyl)carbamoyl]-2-vinylcyclopropyl}-7-azadispiro[3.0.4.1]decane-8-carboxamide], the IC50 turned out to be 45 nM.

With `CC[C@@H]1C[C@]1(NC(=O)[C@@H]1C[C@@]2(CN1C(=O)[C@@H](NC(=O)[C@@H](NC(=O)[C@@H]1CCCCN1CC)C1CCCCC1)C(C)(C)C)C(C)(C)C21CCC1)C(=O)NS(=O)(=O)N1CCCC1` [Compound 87, (5R,8S)-7-[(2S)-2-{[(2S)-2-cyclohexyl-2-({[(2S)-1-ethylpiperidin-2-yl]carbonyl}amino)acetyl]amino}-3,3-dimethylbutanoyl]-N-{(1R,2R)-2-ethyl-1-[(pyrrolidin-1-ylsulfonyl)carbamoyl]cyclopropyl}-10,10-dimethyl-7-azadispiro[3.0.4.1]decane-8-carboxamide], the concentration for half-maximal inhibition (IC50) was determined as 7 nM.

In the case of `C=C[C@@H]1C[C@]1(NC(=O)[C@@H]1C[C@@]2(CN1C(=O)[C@@H](NC(=O)[C@@H](NC(=O)c1ccnc3ccccc13)C1CCCCC1)C(C)(C)C)C(C)(C)C21CCC1)C(=O)NS(=O)(=O)N1CCCC1` [Compound 197, (5R,8S)-7-[(2S)-2-({cyclohexyl[(quinolin-4-ylcarbonyl)amino]acetyl}amino)-3,3-dimethylbutanoyl]-10,10-dimethyl-N-{(1R,2S)-1-[(pyrrolidin-1-ylsulfonyl)carbamoyl]-2-vinylcyclopropyl}-7-azadispiro[3.0.4.1]decane-8-carboxamide], the IC50 was determined as 40 nM.

For `C=C[C@@H]1C[C@]1(NC(=O)[C@@H]1C[C@@]2(CN1C(=O)[C@@H](NC(=O)[C@@H](NC(=O)[C@@H]1CCCCN1C(C)C)C1CCCCC1)C(C)(C)C)C(C)(C)C21CCC1)C(=O)NS(=O)(=O)N1CCC(F)(F)C1` [Compound 143, (5R,8S)-7-[(2S)-2-{[(2S)-2-cyclohexyl-2-({[(2S)-1-isopropylpiperidin-2-yl]carbonyl}amino)acetyl]amino}-3,3-dimethylbutanoyl]-N-[(1R,2S)-1-{[(3,3-difluoropyrrolidin-1-yl)sulfonyl]carbamoyl}-2-vinylcyclopropyl]-10,10-dimethyl-7-azadispiro[3.0.4.1]decane-8-carboxamide], the IC50 is 3 nM.

On to `C=C[C@@H]1C[C@]1(NC(=O)[C@@H]1C[C@@]2(CN1C(=O)[C@@H](NC(=O)[C@@H](NC(=O)[C@H]1CCCCN1C)C1CCCCC1)C(C)(C)C)C(C)(C)C21CCC1)C(=O)NS(=O)(=O)N1CCCC1` [Compound 48, (5R,8S)-7-[(2S)-2-{[(2S)-2-cyclohexyl-2-({[(2R)-1-methylpiperidin-2-yl]carbonyl}amino)acetyl]amino}-3,3-dimethylbutanoyl]-10,10-dimethyl-N-{(1R,2S)-1-[(pyrrolidin-1-ylsulfonyl)carbamoyl]-2-vinylcyclopropyl}-7-azadispiro[3.0.4.1]decane-8-carboxamide], for which the IC50 was found to be 0.9 nM.

As for `CC[C@@H]1C[C@]1(NC(=O)[C@@H]1C[C@@]2(CN1C(=O)[C@@H](NC(=O)[C@@H](NC(=O)[C@@H]1CCCCN1C(C)C)C1CCCCC1)C(C)(C)C)C(C)(C)C21CCC1)C(=O)NS(=O)(=O)N(C)C(C)C` [Compound 141, (5R,8S)-7-[(2S)-2-{[(2S)-2-cyclohexyl-2-({[(2S)-1-isopropylpiperidin-2-yl]carbonyl}amino)acetyl]amino}-3,3-dimethylbutanoyl]-N-[(1R,2R)-2-ethyl-1-({[isopropyl(methyl)amino]sulfonyl}carbamoyl)cyclopropyl]-10,10-dimethyl-7-azadispiro[3.0.4.1]decane-8-carboxamide], the IC50 is 8 nM.

With `C=C[C@@H]1C[C@]1(NC(=O)[C@@H]1C[C@@]2(CN1C(=O)[C@@H](NC(=O)[C@@H](NC(=O)c1ccc3[nH]ccc3c1)C1CCCCC1)C(C)(C)C)C(C)(C)C21CCC1)C(=O)NS(=O)(=O)N1CCCC1` [Compound 190, (5R,8S)-7-[(2S)-2-({cyclohexyl[(1H-indol-5-ylcarbonyl)amino]acetyl}amino)-3,3-dimethylbutanoyl]-10,10-dimethyl-N-{(1R,2S)-1-[(pyrrolidin-1-ylsulfonyl)carbamoyl]-2-vinylcyclopropyl}-7-azadispiro[3.0.4.1]decane-8-carboxamide], the IC50 stood at 20 nM.

On to `C=C[C@@H]1C[C@]1(NC(=O)[C@@H]1C[C@@]2(CN1C(=O)[C@@H](NC(=O)[C@@H](NC(=O)[C@@H]1CCCCN1C(C)C)C1CCCCC1)C1CCOCC1)C(C)(C)C21CCC1)C(=O)NS(=O)(=O)N1CCCC1` [Compound 41, (5R,8S)-7-[(2S)-2-{[(2S)-2-cyclohexyl-2-({[(2S)-1-isopropylpiperidin-2-yl]carbonyl}amino)acetyl]amino}-2-(tetrahydro-2H-pyran-4-yl)acetyl]-10,10-dimethyl-N-{(1R,2S)-1-[(pyrrolidin-1-ylsulfonyl)carbamoyl]-2-vinylcyclopropyl}-7-azadispiro[3.0.4.1]decane-8-carboxamide], for which the IC50 was determined as 0.9 nM.

On to `C=C[C@@H]1C[C@]1(NC(=O)[C@@H]1C[C@@]2(CN1C(=O)[C@@H](NC(=O)[C@@H](NC(=O)[C@@H]1CCCN1C(C)C)C(C)(C)C)C(C)(C)C)C(C)(C)C21CCC1)C(=O)NS(=O)(=O)N1CCCC1` [Compound 11, (5R,8S)-7-[(2S)-2-{[(2S)-2-({[(2S)-1-isopropylpyrrolidin-2-yl]carbonyl}amino)-3,3-dimethylbutanoyl]amino}-3,3-dimethylbutanoyl]-10,10-dimethyl-N-{(1R,2S)-1-[(pyrrolidin-1-ylsulfonyl)carbamoyl]-2-vinylcyclopropyl}-7-azadispiro[3.0.4.1]decane-8-carboxamide], for which the IC50 came to 20 nM.

In the case of `C=C[C@@H]1C[C@]1(NC(=O)[C@@H]1C[C@@]2(CN1C(=O)[C@@H](NC(=O)[C@@H](NC(=O)[C@@H]1CCCCN1CC)C1CCCC1)C(C)(C)C)C(C)(C)C21CCC1)C(=O)NS(=O)(=O)N(CC)CC` [Compound 81, (5R,8S)-7-[(2S)-2-{[(2S)-2-cyclopentyl-2-({[(2S)-1-ethylpiperidin-2-yl]carbonyl}amino)acetyl]amino}-3,3-dimethylbutanoyl]-N-[(1R,2S)-1-{[(diethylamino)sulfonyl]carbamoyl}-2-vinylcyclopropyl]-10,10-dimethyl-7-azadispiro[3.0.4.1]decane-8-carboxamide], the IC50 stood at 4 nM.

For the molecule `C=C[C@@H]1C[C@]1(NC(=O)[C@@H]1C[C@@]2(CN1C(=O)[C@@H](NC(=O)[C@@H](NC(=O)OC(C)(C)C)C(C)(C)C)C(C)(C)C)C(C)(C)C21CCC1)C(=O)NS(=O)(=O)N1CCCC1` [Compound 2, tert-butyl [(1S)-1-{[(1S)-1-{[(5R,8S)-10,10-dimethyl-8-({(1R,2S)-1-[(pyrrolidin-1-ylsulfonyl)carbamoyl]-2-vinylcyclopropyl}carbamoyl)-7-azadispiro[3.0.4.1]dec-7-yl]carbonyl}-2,2-dimethylpropyl]carbamoyl}-2,2-dimethylpropyl]carbamate], the IC50 stood at 750 nM.
